Source: US9833497B2, “Human originated EGF domain proteins and use of the same” (CHENGDU SOURCEBIO LIMITED-LIABILITY COMPANY, priority 2013, dated 2017)

Key:
Assay type in all cases: cell-based
E. coli BL21 = assay: MIC against Gram-negative bacteria: E. coli BL21; settings: for MIC against E. coli BL21: 96-well plate, 37° C., 10 h; for MIC / MIC (μg/mL) E. coli BL21: 10 h cultivation at 37° C.
Outline: (§1)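 Inocula prepared by growing LB cultures at 37° C to 0.5 McFarland, centrifuging at 4000×g, and resuspending in fresh medium. Final density 5×10^5 CFU/mL per well with two-fold dilutions of purified EGF domain protein; shaking incubation at 37° C.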

Moraxella catarrhalis = assay: MIC against Gram-negative bacteria: Moraxella catarrhalis; settings: for MIC against M. catarrhalis: 96-well plate, 37° C., 10 h; for MIC / MIC (μg/mL) M. catarrhalis: M. catarrhalis, 10 h cultivation at 37° C.
Outline: as §1

Citrobacter diversus = assay: MIC against Gram-negative bacteria: Citrobacter diversus; settings: for MIC against C. diversus: 96-well plate, 37° C., 10 h; for MIC / MIC (μg/mL) C. diversus: C. diversus, 10 h cultivation at 37° C.
Outline: as §1

Proteus mirabilis = assay: MIC against Gram-negative bacteria: Proteus mirabilis; settings: for MIC against P. mirabilis: 96-well plate, 37° C., 10 h; for MIC / MIC (μg/mL) P. mirabilis: P. mirabilis, 10 h cultivation at 37° C.
Outline: as §1

Aeromonas hydrophila = assay: MIC against Gram-negative bacteria: Aeromonas hydrophila; settings: for MIC against A. hydrophila: 96-well plate, 37° C., 10 h; for MIC / MIC (μg/mL) A. hydrophila: A. hydrophila, 10 h cultivation at 37° C.
Outline: as §1

Klebsiella pneumonia = assay: MIC against Gram-negative bacteria: Klebsiella pneumonia; settings: for MIC against K. pneumonia: 96-well plate, 37° C., 10 h; for MIC / MIC (μg/mL) K. pneumonia: K. pneumonia, 10 h cultivation at 37° C.
Outline: as §1

Pseudomonas aeruginosa = assay: MIC against Gram-negative bacteria: Pseudomonas aeruginosa; settings: for MIC against P. aeruginosa: 96-well plate, 37° C., 10 h; for MIC / MIC (μg/mL) P. aeruginosa: P. aeruginosa, 10 h cultivation at 37° C.
Outline: as §1

Serratia marcescens = assay: MIC against Gram-negative bacteria: Serratia marcescens; settings: for MIC against S. marcescens: 96-well plate, 37° C., 10 h; for MIC / MIC (μg/mL) S. marcescens: S. marcescens, 10 h cultivation at 37° C.
Outline: as §1

Enterobacter cloacae = assay: MIC against Gram-negative bacteria: Enterobacter cloacae; settings: for MIC against E. cloacae: 96-well plate, 37° C., 10 h; for MIC / MIC (μg/mL) E. cloacae: E. cloacae, 10 h cultivation at 37° C.
Outline: as §1

E. coli DH5α = assay: Antibacterial activity: MIC and growth curve against E. coli DH5α in 96-well plate; settings: minimal inhibitory concentration against E. coli DH5α; 96-well plate, 5×10^5 CFU/mL, 37° C., judged after 8 h
Outline: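 Log-phase DH5α (OD600 about 0.5, 37° C, 185 rpm in LB) was pelleted, resuspended in fresh LB and seeded at 5×10^5 CFU/mL with recombinant protein at 50, 25 and 12.5 μg/mL (two-fold series), in triplicate. Plates were shaken at 175 rpm, 37° C, and OD600 was read every 30 min. MIC was the lowest concentration with no growth.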

Proteus vulgaris = assay: MIC against Gram-negative bacteria: Proteus vulgaris; settings: for MIC against P. vulgaris: 96-well plate, 37° C., 10 h; for MIC / MIC (μg/mL) P. vulgaris: P. vulgaris, 10 h cultivation at 37° C.
Outline: as §1

PRT459 (RTAKCEPACRHGGVCVRPNKCLCKKGYLGPQCE; listed as Homo sapiens)
50 µg/mL: MIC against M. catarrhalis (Moraxella catarrhalis; 5×10^5 CFU/mL) | MIC against K. pneumonia (Klebsiella pneumonia; 5×10^5 CFU/mL)
25 µg/mL: MIC against C. diversus (Citrobacter diversus; 5×10^5 CFU/mL) | MIC against P. mirabilis (Proteus mirabilis; 5×10^5 CFU/mL) | MIC against P. aeruginosa (Pseudomonas aeruginosa; 5×10^5 CFU/mL) | MIC against S. marcescens (Serratia marcescens; 5×10^5 CFU/mL) | MIC against E. cloacae (Enterobacter cloacae; 5×10^5 CFU/mL) | MIC (E. coli DH5α)
12.5 µg/mL: MIC against E. coli BL21 (E. coli BL21; 5×10^5 CFU/mL) | MIC against A. hydrophila (Aeromonas hydrophila; 5×10^5 CFU/mL) | MIC against P. vulgaris (Proteus vulgaris; 5×10^5 CFU/mL)

PRT1027 (PGNPCYDGSHMCDTTARCHPGTGVDYTCECASGYQGDGRNCV; listed as Homo sapiens)
50 µg/mL: MIC (Citrobacter diversus) | MIC (Proteus mirabilis) | MIC (Serratia marcescens) | MIC (Enterobacter cloacae)
25 µg/mL: MIC (E. coli BL21; E. coli BL21) | MIC (Klebsiella pneumonia)
12.5 µg/mL: MIC (Moraxella catarrhalis) | MIC (Aeromonas hydrophila) | MIC (Pseudomonas aeruginosa) | MIC (E. coli DH5α) | MIC (Proteus vulgaris)

PRT201 (NMSSCPLDSKGKVCSGHGVCSNEATCICDFTWAGTDCS; listed as Homo sapiens)
50 µg/mL: MIC (μg/mL) C. diversus (Citrobacter diversus; 5×10^5 CFU/mL) | MIC (μg/mL) P. aeruginosa (Pseudomonas aeruginosa; 5×10^5 CFU/mL) | MIC (μg/mL) E. cloacae (Enterobacter cloacae; 5×10^5 CFU/mL) | MIC (E. coli DH5α) | MIC (μg/mL) P. vulgaris (Proteus vulgaris; 5×10^5 CFU/mL)
12.5 µg/mL: MIC (μg/mL) E. coli BL21 (E. coli BL21; E. coli BL21, 5×10^5 CFU/mL) | MIC (μg/mL) M. catarrhalis (Moraxella catarrhalis; 5×10^5 CFU/mL) | MIC (μg/mL) A. hydrophila (Aeromonas hydrophila; 5×10^5 CFU/mL) | MIC (μg/mL) K. pneumonia (Klebsiella pneumonia; 5×10^5 CFU/mL)
25 µg/mL: MIC (μg/mL) P. mirabilis (Proteus mirabilis; 5×10^5 CFU/mL) | MIC (μg/mL) S. marcescens (Serratia marcescens; 5×10^5 CFU/mL)

PRT1235 (IGPQCEEMCNGQGSCINGTKCICDPGYSGPTCK; listed as Homo sapiens)
12.5 µg/mL: MIC against E. coli BL21 (E. coli BL21; E. coli BL21, 5×10^5 CFU/mL) | MIC against M. catarrhalis (Moraxella catarrhalis; Moraxella catarrhalis, 5×10^5 CFU/mL) | MIC against C. diversus (Citrobacter diversus; Citrobacter diversus, 5×10^5 CFU/mL) | MIC against P. mirabilis (Proteus mirabilis; Proteus mirabilis, 5×10^5 CFU/mL) | MIC against A. hydrophila (Aeromonas hydrophila; Aeromonas hydrophila, 5×10^5 CFU/mL) | MIC against K. pneumonia (Klebsiella pneumonia; Klebsiella pneumonia, 5×10^5 CFU/mL) | MIC against S. marcescens (Serratia marcescens; Serratia marcescens, 5×10^5 CFU/mL) | MIC (E. coli DH5α)
50 µg/mL: MIC against P. vulgaris (Proteus vulgaris; Proteus vulgaris, 5×10^5 CFU/mL)
25 µg/mL: MIC against P. aeruginosa (Pseudomonas aeruginosa; Pseudomonas aeruginosa, 5×10^5 CFU/mL) | MIC against E. cloacae (Enterobacter cloacae; Enterobacter cloacae, 5×10^5 CFU/mL)

PRT302 (DIDECVEEPEICALGTCSNTEGSFKCLCPEGFSLSSSGRRCQ; listed as Homo sapiens)
50 µg/mL: MIC (Proteus vulgaris; 5×10^5 CFU/mL)
12.5 µg/mL: MIC (Moraxella catarrhalis; 5×10^5 CFU/mL) | MIC (Citrobacter diversus; 5×10^5 CFU/mL) | MIC (Proteus mirabilis; 5×10^5 CFU/mL) | MIC (Aeromonas hydrophila; 5×10^5 CFU/mL) | MIC (Pseudomonas aeruginosa; 5×10^5 CFU/mL) | MIC (Serratia marcescens; 5×10^5 CFU/mL) | MIC (Enterobacter cloacae; 5×10^5 CFU/mL) | MIC (E. coli DH5α)
25 µg/mL: MIC (E. coli BL21; E. coli BL21, 5×10^5 CFU/mL) | MIC (Klebsiella pneumonia; 5×10^5 CFU/mL)

PRT800 (GRVCQCQNGASCDHISGKCTCRTGFTGQHCE; listed as Homo sapiens)
50 µg/mL: MIC (μg/mL) E. coli BL21 (E. coli BL21; E. coli BL21, 5×10^5 CFU/mL) | MIC (μg/mL) C. diversus (Citrobacter diversus; 5×10^5 CFU/mL) | MIC (μg/mL) E. cloacae (Enterobacter cloacae; 5×10^5 CFU/mL) | MIC (μg/mL) P. vulgaris (Proteus vulgaris; 5×10^5 CFU/mL)
25 µg/mL: MIC (μg/mL) P. aeruginosa (Pseudomonas aeruginosa; 5×10^5 CFU/mL) | MIC (μg/mL) S. marcescens (Serratia marcescens; 5×10^5 CFU/mL) | MIC (E. coli DH5α)
12.5 µg/mL: MIC (μg/mL) M. catarrhalis (Moraxella catarrhalis; 5×10^5 CFU/mL) | MIC (μg/mL) P. mirabilis (Proteus mirabilis; 5×10^5 CFU/mL) | MIC (μg/mL) A. hydrophila (Aeromonas hydrophila; 5×10^5 CFU/mL) | MIC (μg/mL) K. pneumonia (Klebsiella pneumonia; 5×10^5 CFU/mL)

PRT546 (CDCHEAGTAPGVCDPLTGQCYCKENVQGPKCDQCSLGTFSLDAANPKGCTR; listed as Homo sapiens)
50 µg/mL: MIC against E. coli BL21 (E. coli BL21; 5×10^5 CFU/mL) | MIC against M. catarrhalis (Moraxella catarrhalis; 5×10^5 CFU/mL) | MIC against A. hydrophila (Aeromonas hydrophila; 5×10^5 CFU/mL) | MIC against K. pneumonia (Klebsiella pneumonia; 5×10^5 CFU/mL) | MIC against S. marcescens (Serratia marcescens; 5×10^5 CFU/mL)
25 µg/mL: MIC against P. vulgaris (Proteus vulgaris; 5×10^5 CFU/mL)
12.5 µg/mL: MIC against C. diversus (Citrobacter diversus; 5×10^5 CFU/mL) | MIC against P. mirabilis (Proteus mirabilis; 5×10^5 CFU/mL) | MIC against P. aeruginosa (Pseudomonas aeruginosa; 5×10^5 CFU/mL) | MIC against E. cloacae (Enterobacter cloacae; 5×10^5 CFU/mL) | MIC (E. coli DH5α)
